Results from US20240082272A1, “COMPOSITIONS AND METHODS FOR TREATING WNT-DRIVEN CANCER” (The Regents of the University of Michigan, priority 2020, published 2024).

Tests used:
NCI-H295R = test: RNA-seq transcriptome of NCI-H295R after drug treatment; format: cell-based; conditions: for differentially expressed genes overlapping between EZH2i and CBPi: 96-hour IC-50 administration
Protocol: FIG. 6. Forskolin induces faithful zF differentiation and steroidogenesis in NCI-H295R. […] The induction of immediate early response programs is consistent with known mechanisms of action of PKA.
(§1) FIG. 21. EZH2i and CBPi redundantly disrupt the NCI-H295R transcriptome. […] Right, gene expression changes induced by EZH2i and CBPi are strongly correlated. […] C.
To evaluate if EZH2i disrupted zF differentiation, the NCI-H295R was treated with the zF differentiation agent forskolin and the transcriptome was profiled by RNA-seq. Despite that CIMP-high as a class is at the zF differentiation maximum across human ACC (FIG. 5), the presence of mutant CTNNB1 in this cell line and high levels of nuclear β-catenin are likely to enable faithful responsiveness to forskolin and refractory response to Wnt/β-catenin stimulants, analogously to the Y1 cell line.
The NCI-H295R response to CBPi was evaluated by RNA-seq and compared to the NCI-H295R response to EZH2i. […] Similarly to EZH2i, CBPi induces downregulation of all core modules that define CIMP-high ACC (FIG. 22). Taken together, the results point to adrenocortical differentiation as a targetable therapeutic vulnerability selected for in CIMP-high ACC.

[1] = tested on: subcutaneous, immunodeficient xenograft model of adrenal cancer; test: Subcutaneous xenograft model of adrenal cancer; format: in vivo, mouse; conditions: 200 mg/kg PO daily, compared to vehicle
Protocol: To test if disruption of SF1/β-catenin complexes in vivo can cause dedifferentiation (Example 1 and 2) and disrupt tumor growth, the impact of EZH2 inhibition on a xenograft model derived from the Borges et al. Oncogene 2020 genetically engineered mouse model detailed in FIG. 25 was assayed.

NCI-H295R, ATC7L, and Y1 = test: Viability of ACC cell lines with CBPi alone or combined with EZH2i; format: cell-based; conditions: increasing doses of CBPi combined with EZH2i at the IC-50 dose for each cell line; all ACC cell lines
Protocol: FIG. 20. EZH2i and CBPi are synergistic in ACC cell lines. NCI-H295R, ATC7L, and Y1 were treated with increasing doses of CBPi (PRI-724), alone or in combination with EZH2i at the IC-50 dose for each cell line (EZH2i viability curves for ATC7L and Y1 not shown).
ACC cell lines were treated with a specific and irreversible inhibitor of the H3K27 acetyltransferase CBP (PRI-724 (Kahn, 2014)). CBP regulates H3K27ac deposition genome-wide including at enhancers, and CBP-dependent H3K27ac deposition is required for enhancer activity (Merika et al., 1998; Raisner et al., 2018). Cell lines received the CBP inhibitor (CBPi) either alone or combination with EZH2i at the determined IC-50 dose for that cell line.

HSD3B2 = HSD3B2 expression by qPCR in NCI-H295R; format: cell-based; conditions: doses under the IC-50
Source text: FIG. 7. EZH2i reverses zF differentiation. […] Representative experiment shown, n>3. C.
as §1

SMILES | differentially expressed genes overlapping between EZH2i and CBPi (NCI-H295R) | tumor growth [1] | expression of SF1 ([1]; immunohistochemistry) | steroidogenesis (RNA-seq) (NCI-H295R) | loss of viability in combination (NCI-H295R, ATC7L, and Y1) | HSD3B2 expression (HSD3B2)
CCN(c1cc(-c2ccc(CN3CCOCC3)cc2)cc(C(=O)NCc2c(C)cc(C)[nH]c2=O)c1C)C1CCOCC1 [EPZ-6438] | ~70% | decreases tumor growth | decreasing expression of SF1 |  |  | 
C[C@H]1[C@H]2N(C(=O)CN(C)N2C(=O)NCc2ccccc2)[C@@H](Cc2ccc(OP(=O)(O)O)cc2)C(=O)N1Cc1cccc2cccnc12 [PRI-724] | ~70% |  |  | potent downregulation of steroidogenesis | synergistic | dose-dependent downregulation
